Values joined by “and” are separate entries in the source; they are usually repeats but may differ in a detail not shown here. Equal values may be shown once. Read-outs that look alike come from different tables or passages of the source.
Assays:
[1] = target: T1, hydrogen peroxide generation by Aβ in the presence of copper (Homo sapiens, UniProt P05067); test: Fluorometric H2O2 assay (Assay 1); type: biochemical; settings: Aβ 1-42 with Cu-Gly, DCF/HRP, 37 C 60 min; several values in one cell = repeat determinations; read-out: Peroxide IC50
T1 construct: The reaction solutions contained Aβ 1-42 at concentrations in the range of 50 nM to 1 μM
T1 sequence (P05067 672-713 limits assumed): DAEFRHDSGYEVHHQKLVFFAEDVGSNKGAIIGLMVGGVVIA
Experimental: Assay 1. Fluorometric H2O2 Assay
A fluorometric assay was used to test the ability of a test compound to inhibit hydrogen peroxide generation by Aβ in the presence of copper based on dichlorofluoroscein diacetate (DCF; Molecular Probes, Eugene Oreg.). The DCF solution (5 mM) in 100% dimethyl sulphoxide (previously purged with argon for 2 hr at 20° C.) was deacetylated in the presence of 0.25M NaOH for 30 min and neutralised at pH 7.4 to a final concentration of 1 mM. Horseradish peroxidase (HRP) stock solution was prepared to 1 μM at pH 7.4. The reactions were carried out in PBS, pH 7.4 in a 96 well plate (total volume=250 μl/well). The reaction solutions contained Aβ 1-42 at concentrations in the range of 50 nM to 1 μM, copper-glycine chelate (Cu-Gly), was prepared by adding CuCl2 to glycine in the ratio of 1:6 and added to the Aβ in the proportion 2Cu-Gly: 1Aβ), reducing agents including dopamine (5 μM) or ascorbic acid, deacetylated DCF 100 μM, and HRP, 0.1 μM. […] The reaction mixture was incubated at 37 C for 60 min. […] H2O2 concentration may be established by comparing fluorescence with the H2O2 standards. Inhibition of AB H2O2 production was assayed by including a given concentration of test compound(s) in the test wells.

[2] = test system: Aβ in extract of tissue from post mortem human AD brain; test: Human brain amyloid solubilisation assay (Assay 9, BAS); type: biochemical
Experimental: Assay 9. Human Brain Amyloid Solubilisation Assay
This assay was performed in order to assess the ability of a test compound to mobilise Aβ from the insoluble to the soluble phase of an extract of tissue from post mortem human AD brain.
Up to 0.5 g of plaque-bearing cortex without meninges was homogenized using a DIAX 900 homogenizer (Heudolph and Co, Kelheim, Germany) or other suitable device for three 30-second periods at full speed in 2 ml of ice-cold phosphate-buffered saline, pH 7.4. To obtain the phosphate-buffered saline-extractable fraction, the homogenate was centrifuged at 100,000×g for 30 min and the supernatant removed. Alternatively, the tissue was freeze dried then pulverised to form a powder which was then weighed out into aliquots for extraction as above. Supernatant, either freeze-dried and resuspended or in unconcentrated form, was dissolved in 200 μl of Tris-Tricine sodium dodecyl sulfate (SDS) sample buffer pH 8.3 containing 8% SDS, 10% 2-mercaptoethanol. Aliquots (10 μl) were then boiled for 10 minutes before SDS-polyacrylamide gel electrophoresis. The insoluble fraction of the cortical samples was obtained by resuspending the initial pelleted sample in 1 ml of phosphate-buffered saline. A 50-μl aliquot of this suspension was then boiled in […] of sample buffer as above.
Tris-Tricine polyacrylamide gel electrophoresis was performed by loading appropriately diluted samples on to 10% to 20% gradient gels (Novex, San Diego, Calif.) followed by transfer on to 0.2-μm nitrocellulose membrane (Bio-Rad, Hercules, Calif.). Aβ was detected by using monoclonal antibody W02, which detects residues 5 through 8, […] (or another suitable antibody) in conjunction with horseradish peroxidase-conjugated rabbit anti-mouse IgG (Dako, Denmark), and visualized by using enhanced chemiluminescence (eg ECL; Amersham Life Science, Buckinghamshire, UK). Each gel included three lanes containing 0.5, 1, and 2 ng of synthetic Aβ40 (Keck Laboratory, Yale University, New Haven, Conn.) as reference standards.
Blot films were scanned by using a suitable imaging system such as the UVP gel documentation system, and densitometry performed using suitable software, eg UVP Labworks. The dynamic range of the film/scanner was determined by using a step tablet (No. 911ST600, Kodak, Rochester N.Y.), a calibrated film exposed by the manufacturer to provided steps of known increasing intensity. The quantifiable range of signal intensity for densitometric analysis of the mono- and dimeric Aβ bands was based on the comparison with a curve obtained by scanning and densitometry of the step tablet.
All samples were analysed at least twice, and gel loadings and dilutions were adjusted to fit within the quantifiable region of the standard curve. […] The insoluble Aβ being comprised of the pelletable fraction derived from the insoluble amyloid plaque from the above cortical samples and the soluble fraction comprising monomeric and/or oligomeric soluble Aβ.

[3] = test system: Neuronal cortical cells; test: Assay for test compound cytoxicity, MTS (Assay 3(d)); type: cell-based, mouse; settings: BL6J×129sv, mouse, 4 days
Experimental: (§1) Media was then replaced with Neurobasal media (Invitrogen Life Technologies) and B27 supplements (Invitrogen Life Technologies). Cultures were maintained at 37° C. in 5% CO2. Prior to experimentation, the culture medium was replaced with Neurobasal media and B27 minus antioxidants (Invitrogen Life Technologies).
Cell viability is determined using the MTS assay. Culture medium is […] replaced with fresh neurobasal medium plus B27 supplements minus antioxidants. 1/10th volume MTS solution (Cell Titre 96 Aqueous One, Promega Corporation) and incubated at 37° C., 2 hrs. 200 microliter aliquots are measured with a spectrophotometer at 560 nm.
(d) Assay for Test Compound Cytoxicity
Neuronal cortical cells were cultured for five days as per Assay 2 in NB media and B27 supplement.
On day six the test compounds were added to the neuronal cell cultures in NB media and B27 supplement minus antioxidants.
Test compounds were dissolved in 100% DMSO to a concentration of 2.5 mM (10 mM if excess compound was weighed out per vial—then diluted to 2.5 mM). […] Test compounds were not added directly to cells, instead they were added to a 48 well ‘Drug Plate’ as comprised below:
(§2) The Drug Plate was incubated at 37° C. for 15 mins. 200 ul of each well was added in triplicate to the corresponding cell plate. The cell plate was incubated at 37 C, for 4 days.
On completion of the assay, 1/10 volume MTS was added per well of plate (ie 25 ul/250 ul). The plates were incubated at 37 C for 2 hrs, and then absorbance was read at 560 nm.

[4] = test system: Neuronal cortical cells treated with Aβ1-42; test: Assay for Aβ neurotoxicity and Aβ neuroprotection (Assay 3(c)); type: cell-based, mouse; settings: 20 uM Aβ1-42, 4 days, MTS
Experimental: as §1
(c) Assay for Aβ Neurotoxicity and Aβ Neuroprotection
Neuronal cortical cells were cultured for five days as per Assay 2. On day six the neurobasal (NB) media (Invitrogen Life Technologies) and B27 supplement (Invitrogen Life Technologies) were replaced with NB media and B27 supplement (no antioxidants). On day six, test compounds were individually added to the neuronal cell cultures:
Aβ was initially dissolved in 20 mM NaOH to a concentration of 1 mM and sonicated for 5 minutes. The peptide was then diluted in H2O and 10×PBS to a final concentration of 200 uM Aβ in 1×PBS. The peptide was again sonicated for 5 minutes and then spun at 14000 rpm for 5 min and transferred to a fresh tube.
The test compounds were dissolved in 100% DMSO to a concentration of 2.5 mM (10 mM if excess compound was weighed out per vial—then diluted to 2.5 mM). […] Test compounds were not added directly to cells, instead they were added to a 48 well ‘Drug Plate’ as comprised below:
as §2
On the 4th day after treating the cells the assay is completed by adding MTS to the cells.

[5] = solubilising plaques relative to PBS

O=C(NCc1ccccn1)c1ccc2cccc(O)c2n1 [compound 949]
IC50 [1]: 900 nM | BAS Score [2, 5]: + | Viable 10 uM [3]: 84.82

Cc1cccc(-c2ccc3cccc(O)c3n2)n1 [compound 1007]
IC50 [1]: 580 nM | % inhibition Abeta toxicity [4]: 9% | Test Compound Cytoxicity 1 uM [3]: 90 | Test Compound Cytoxicity 10 uM [3]: 43

Oc1ccc(Cl)c2cccnc12 [compound 48]
IC50 [1]: 800 nM | BAS Score [2, 5]: − | Viable 10 uM [3]: 85

NCCNC(=O)c1ccc2cccc(O)c2n1 [compound 957]
BAS Score [2, 5]: + | Viable 10 uM [3]: 95.86

Cc1ccccc1-c1cc(I)c(O)c2ncccc12 [compound 861]
IC50 [1]: 910 nM | BAS Score [2, 5]: + | Viable 10 uM [3]: 37.83

O=C(NCCc1cnc[nH]1)c1cc(O)c2cccc(O)c2n1 [compound 954]
IC50 [1]: 180 nM | BAS Score [2, 5]: − | Viable 10 uM [3]: 104.9

CO/N=C/c1ccc2c(Cl)cc(Cl)c(O)c2n1 [compound 1032]
IC50 [1]: 1000 nM | % inhibition Abeta toxicity [4]: −2% | Test Compound Cytoxicity 1 uM [3]: 83 | Test Compound Cytoxicity 10 uM [3]: 42

Oc1c(I)cc(I)c2cccnc12 [compound 46]
IC50 [1]: 1000 nM | BAS Score [2, 5]: − | Viable 10 uM [3]: 91.97

Oc1cccc2ccc(CN(CCc3c[nH]cn3)Cc3c[nH]cn3)nc12 [compound 1008]
IC50 [1]: 260 nM | % inhibition Abeta toxicity [4]: 9% | Test Compound Cytoxicity 1 uM [3]: 86 | Test Compound Cytoxicity 10 uM [3]: 28

O=C(c1ccc2cccc(O)c2n1)N(Cc1ccccn1)Cc1ccccn1 [compound 1020]
IC50 [1]: 1300 nM | % inhibition Abeta toxicity [4]: 4% | Test Compound Cytoxicity 1 uM [3]: 85 | Test Compound Cytoxicity 10 uM [3]: 83

Oc1c(Br)cc(Br)c2cccnc12 [compound 47]
IC50 [1]: 900 nM | % inhibition Abeta toxicity [4]: 13% | Test Compound Cytoxicity 1 uM [3]: 88 | Test Compound Cytoxicity 10 uM [3]: 86 | Viable 10 uM [3]: 93.59

Oc1c(I)cc(-c2ccccc2C(F)(F)F)c2cccnc12 [compound 860]
BAS Score [2, 5]: +

CSc1ccccc1-c1ccc2cccc(O)c2n1 [compound 1005]
IC50 [1]: 2400 nM | % inhibition Abeta toxicity [4]: 1% | Test Compound Cytoxicity 1 uM [3]: 100 | Test Compound Cytoxicity 10 uM [3]: 95

CC(=O)NC(=O)c1ccc2cccc(O)c2n1 [compound 1021]
IC50 [1]: 270 nM | % inhibition Abeta toxicity [4]: 1% | Test Compound Cytoxicity 1 uM [3]: 93 | Test Compound Cytoxicity 10 uM [3]: 81

Oc1cccc2ccc(CN(Cc3ccccn3)Cc3ccccn3)nc12 [compound 1010]
IC50 [1]: 330 nM | % inhibition Abeta toxicity [4]: 12% | Test Compound Cytoxicity 1 uM [3]: 88 | Test Compound Cytoxicity 10 uM [3]: 27

O=C(NCc1ccccn1)c1cc(O)c2cccc(O)c2n1 [compound 955]
IC50 [1]: 260 nM and 180 nM | BAS Score [2, 5]: − | Viable 10 uM [3]: 100

Oc1cccc2ccc(CN(Cc3ccccn3)Cc3c[nH]cn3)nc12 [compound 1011]
IC50 [1]: 320 nM | % inhibition Abeta toxicity [4]: 21% | Test Compound Cytoxicity 1 uM [3]: 89 | Test Compound Cytoxicity 10 uM [3]: 31

O=C(CNC(=O)c1cc(O)c2cccc(O)c2n1)NCc1ccccn1 [compound 988]
BAS Score [2, 5]: − | Viable 10 uM [3]: 93.27

Cc1ccccc1-c1cc(-c2ccccc2C)c2cccnc2c1O [compound 852]
BAS Score [2, 5]: + | Viable 10 uM [3]: 33.52

Oc1cccc2ccc(CNCc3ccccn3)nc12 [compound 991]
BAS Score [2, 5]: +

Nc1ccc(O)c2ncccc12 [compound 44]
BAS Score [2]: + | Viable 10 uM [3]: 71.05

O=C(Nc1ccccc1O)c1ccc2cccc(O)c2n1 [compound 951]
IC50 [1]: 1430 nM | BAS Score [2, 5]: − | Viable 10 uM [3]: 91.86

CC(=O)c1ccc2cccc(O)c2n1 [compound 976]
IC50 [1]: 3700 nM | BAS Score [2, 5]: −

O=S(=O)(O)c1cc(I)c(O)c2ncccc12 [compound 43]
IC50 [1]: 600 nM | BAS Score [2, 5]: − | Viable 10 uM [3]: 91.02

Oc1c(-c2ccccc2F)cc(-c2ccccc2F)c2cccnc12 [compound 975]
IC50 [1]: 3200 nM | BAS Score [2, 5]: +

CN(C)c1ccc(-c2cc(Cl)c3cccnc3c2O)cc1 [compound 851]
IC50 [1]: < 700 nM | BAS Score [2, 5]: −

Oc1c(-c2ccccc2)cc(-c2ccccc2)c2cccnc12 [compound 809]
IC50 [1]: < 4000 nM and 1800 nM | BAS Score [2, 5]: + | Viable 10 uM [3]: 26.31

COc1ccccc1-c1cc(I)c(O)c2ncccc12 [compound 863]
BAS Score [2, 5]: + | Viable 10 uM [3]: 34.97

COc1ccccc1-c1cc(-c2ccccc2OC)c2cccnc2c1O [compound 862]
BAS Score [2, 5]: +

Oc1cccc2ccc(CNCCc3c[nH]cn3)nc12 [compound 989]
IC50 [1]: 420 nM | BAS Score [2, 5]: − | Viable 10 uM [3]: 43.24

Cc1cccc(-c2cc(Cl)c3cccnc3c2O)c1 [compound 859]
BAS Score [2, 5]: +

Oc1c(-c2ccccc2C(F)(F)F)cc(-c2ccccc2C(F)(F)F)c2cccnc12 [compound 974]
IC50 [1]: 600 nM | BAS Score [2, 5]: +

N=C(N)NCc1ccc2cccc(O)c2n1 [compound 966]
IC50 [1]: 4300 nM | BAS Score [2, 5]: + | Viable 10 uM [3]: 88.61
